In assay [1] the test system is Streptococcus sp. 'group A'. Description: growth inhibition of control SK(-) GAS strain, dose response, counter-screen for streptokinase expression inhibitor project, luminescence, kanamycin, BacTiterGlo, confirmation (AID 1900). The class given is functional, organism-based. (In general: Counterscreens check selectivity or assay interference.)
The target in assay [2] is Melanocortin receptor 4 (Homo sapiens, UniProt P32245). The class given is functional, cell-based.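 Also: Cell-based assay with luminescence read-out, confirmatory dose-response testing for agonist activity of biased ligands at MC4R; human U2OS cells with tagged receptor and beta-arrestin; potency of agonists that increase receptor coupling to beta-arrestin.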
The target of assay [3] is Serine/threonine-protein phosphatase (Homo sapiens, UniProt Q9BPW0). Description: PP5 phosphatase inhibitors, dose response, biochemical, fluorescence (AID 2395).
The target in assay [4] is Polyadenylate-binding protein 1 (Homo sapiens, UniProt P11940). Put plainly: PABP1 MLLE–PAM2 binding inhibitor potency, dose response, biochemical, fluorescence polarization, FITC-PAM2 peptide (AID 602259). The class given is functional. As to conditions: read-out: IC50_Mean.
The target in assay [5] is Female germline-specific tumor suppressor gld-1 (Caenorhabditis elegans, UniProt Q17339). Put plainly: inhibitors of GLD-1 binding to TGE RNA, dose response, biochemical, fluorescence polarization, C. elegans (AID 2802).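 Also: fluorescence polarization of labeled TGE RNA bound by purified gld-1 protein.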 On the technique in general: Polarisation of emitted light reports the rotation of a fluorescent probe.
In assay [6] the target is Paired box protein Pax-8 (Homo sapiens, UniProt Q06710). Description: inhibitors of PAX8-driven TPO luciferase reporter, dose response, RMG-I cells, cherry-pick (AID 687027).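 Also: luciferase reporter driven by Pax8 target thyroperoxidase promoter measured by SteadyGlo luminescence.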 The class given is functional, cell-based. On the technique in general: In a reporter assay the amount or activity of a reporter protein is the signal.
The target in assay [7] is Beta-galactosidase (Escherichia coli, UniProt Q8VNN2). Description: beta-galactosidase enzyme inhibitors and activators, dose response, artefact control for CCR6 antagonist project, biochemical, E. coli enzyme, set 3 (AID 504712). The class given is functional.
In assay [8] the test system is BJ. Put plainly: cytotoxicity toward BJ-TERT-LT-ST fibroblasts, dose response, cell-based, RAS-independent, luminescence (AID 1935).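 Also: BJ fibroblasts immortalized with TERT plus LT and ST oncogenes.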 The class given is functional. The following applies: Homo sapiens.
Assay [9] addresses Nonstructural protein 1 (Influenza A virus, UniProt Q194T2). The class given is functional, Influenza A virus (A/California/07/2009(H1N1)).
The target of assay [10] is Glucose-6-phosphate 1-dehydrogenase (Homo sapiens, UniProt P11413). Put plainly: human G6PD enzyme inhibitors, dose response, selectivity assay for P. falciparum G6PD inhibitor project, biochemical, fluorescence (AID 504792). The class given is functional.
Assay [11] is described as follows: non-specific cell cytotoxicity, dose response, cytotoxicity control for PAX8 inhibitor project, plate reader, dry powder samples (AID 743021). The class given is functional, cell-based.
For assay [12], the system named is BJ. Description: cells. The following applies: Homo sapiens. The class given is functional, cell-based.
The target of assay [13] is SUMO-activating enzyme (Homo sapiens, UniProt Q9UBT2). Put plainly: inhibitors of in vitro SUMOylation cascade, primary screen, biochemical, HTRF, uHTS (AID 2006). The class given is protein-complex assay.
In assay [14] the target is T1, Histone-lysine N-methyltransferase NSD2 (Homo sapiens, UniProt O96028).
T1 sequence (O96028 whole entry): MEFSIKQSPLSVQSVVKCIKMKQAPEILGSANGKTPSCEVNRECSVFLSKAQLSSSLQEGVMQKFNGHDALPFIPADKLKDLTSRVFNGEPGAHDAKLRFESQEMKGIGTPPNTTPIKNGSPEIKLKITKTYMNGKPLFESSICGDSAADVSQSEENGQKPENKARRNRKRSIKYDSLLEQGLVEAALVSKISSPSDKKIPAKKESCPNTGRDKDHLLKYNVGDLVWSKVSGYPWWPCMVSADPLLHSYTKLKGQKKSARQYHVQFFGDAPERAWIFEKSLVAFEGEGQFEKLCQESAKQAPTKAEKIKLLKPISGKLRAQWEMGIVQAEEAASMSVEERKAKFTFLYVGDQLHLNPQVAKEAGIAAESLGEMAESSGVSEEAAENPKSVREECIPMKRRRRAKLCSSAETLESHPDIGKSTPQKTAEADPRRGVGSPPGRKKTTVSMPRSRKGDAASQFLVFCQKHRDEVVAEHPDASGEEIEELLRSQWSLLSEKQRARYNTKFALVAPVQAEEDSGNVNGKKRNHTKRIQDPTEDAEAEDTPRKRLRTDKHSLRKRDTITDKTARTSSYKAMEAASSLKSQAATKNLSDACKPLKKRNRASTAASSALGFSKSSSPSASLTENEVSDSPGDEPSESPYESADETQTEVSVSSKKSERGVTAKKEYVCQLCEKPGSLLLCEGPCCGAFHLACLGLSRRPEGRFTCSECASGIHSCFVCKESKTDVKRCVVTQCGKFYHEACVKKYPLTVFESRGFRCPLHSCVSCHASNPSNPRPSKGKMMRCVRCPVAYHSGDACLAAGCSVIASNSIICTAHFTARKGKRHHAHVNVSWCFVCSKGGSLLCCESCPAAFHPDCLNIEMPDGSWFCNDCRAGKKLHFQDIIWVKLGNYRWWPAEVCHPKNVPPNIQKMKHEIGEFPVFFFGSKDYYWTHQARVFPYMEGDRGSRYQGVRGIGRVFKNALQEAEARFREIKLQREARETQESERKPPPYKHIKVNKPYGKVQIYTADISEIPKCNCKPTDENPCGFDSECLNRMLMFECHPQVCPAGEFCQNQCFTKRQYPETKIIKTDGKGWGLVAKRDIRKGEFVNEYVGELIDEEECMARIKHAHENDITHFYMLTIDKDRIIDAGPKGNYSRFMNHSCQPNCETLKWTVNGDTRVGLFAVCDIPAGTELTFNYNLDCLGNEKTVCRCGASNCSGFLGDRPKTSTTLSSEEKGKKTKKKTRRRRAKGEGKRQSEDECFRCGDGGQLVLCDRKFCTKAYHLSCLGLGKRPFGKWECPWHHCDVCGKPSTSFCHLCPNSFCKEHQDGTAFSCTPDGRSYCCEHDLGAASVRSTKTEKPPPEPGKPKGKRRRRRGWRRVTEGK
The class given is biochemical.

Assay [15] in a line: microbe, parasite or virus in culture. The class given is functional. As to conditions: Mycobacterium tuberculosis.

The results in this text go back to ChEMBL document CHEMBL1201862, “PubChem BioAssay data set” (2004).

Molecules are shown by their SMILES. Activity calls are given as the source filed them.

Glucose-6-phosphate 1-dehydrogenase, sequence (P11413 whole entry): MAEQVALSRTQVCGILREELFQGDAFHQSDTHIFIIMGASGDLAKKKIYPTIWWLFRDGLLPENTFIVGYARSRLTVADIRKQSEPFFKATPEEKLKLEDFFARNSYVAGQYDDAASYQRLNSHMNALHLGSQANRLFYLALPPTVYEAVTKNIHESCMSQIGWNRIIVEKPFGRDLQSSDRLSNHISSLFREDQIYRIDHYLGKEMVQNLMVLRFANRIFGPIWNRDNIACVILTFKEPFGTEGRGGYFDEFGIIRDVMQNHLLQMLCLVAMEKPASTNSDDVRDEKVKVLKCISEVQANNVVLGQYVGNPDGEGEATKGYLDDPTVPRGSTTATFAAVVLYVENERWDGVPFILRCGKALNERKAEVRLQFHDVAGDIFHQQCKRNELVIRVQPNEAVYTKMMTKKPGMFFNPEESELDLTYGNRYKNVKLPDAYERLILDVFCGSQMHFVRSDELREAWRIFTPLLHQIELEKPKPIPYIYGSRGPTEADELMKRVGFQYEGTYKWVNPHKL
SUMO-activating enzyme, sequence (Q9UBE0 whole entry): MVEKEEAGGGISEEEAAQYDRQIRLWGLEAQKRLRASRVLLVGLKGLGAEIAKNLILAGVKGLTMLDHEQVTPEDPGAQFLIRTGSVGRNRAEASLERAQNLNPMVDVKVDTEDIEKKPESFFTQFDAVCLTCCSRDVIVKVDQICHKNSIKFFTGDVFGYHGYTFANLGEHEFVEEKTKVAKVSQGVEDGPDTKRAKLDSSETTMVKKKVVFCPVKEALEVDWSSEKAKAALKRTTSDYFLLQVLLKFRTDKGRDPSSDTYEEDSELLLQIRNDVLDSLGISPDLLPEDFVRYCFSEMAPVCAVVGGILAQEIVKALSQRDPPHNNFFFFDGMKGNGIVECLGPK
SUMO-activating enzyme, sequence (Q9UBT2 whole entry): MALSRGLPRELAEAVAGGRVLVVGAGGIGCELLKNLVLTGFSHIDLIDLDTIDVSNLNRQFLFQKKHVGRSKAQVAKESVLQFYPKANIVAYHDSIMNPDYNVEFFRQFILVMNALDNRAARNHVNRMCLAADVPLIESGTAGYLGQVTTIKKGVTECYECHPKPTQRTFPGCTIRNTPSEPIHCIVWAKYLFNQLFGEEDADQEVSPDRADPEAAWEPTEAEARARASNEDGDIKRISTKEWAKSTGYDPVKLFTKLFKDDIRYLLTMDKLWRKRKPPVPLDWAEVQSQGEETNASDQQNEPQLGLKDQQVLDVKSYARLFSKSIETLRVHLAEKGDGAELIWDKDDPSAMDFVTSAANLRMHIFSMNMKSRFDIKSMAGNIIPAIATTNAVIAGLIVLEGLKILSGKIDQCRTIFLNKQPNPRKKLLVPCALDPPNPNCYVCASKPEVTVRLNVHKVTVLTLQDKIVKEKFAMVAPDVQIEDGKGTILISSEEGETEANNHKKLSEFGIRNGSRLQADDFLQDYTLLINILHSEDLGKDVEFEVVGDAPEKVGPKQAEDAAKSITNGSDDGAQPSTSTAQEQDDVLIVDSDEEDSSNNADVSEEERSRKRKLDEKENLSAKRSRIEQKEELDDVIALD
Female germline-specific tumor suppressor gld-1, sequence (Q17339 whole entry): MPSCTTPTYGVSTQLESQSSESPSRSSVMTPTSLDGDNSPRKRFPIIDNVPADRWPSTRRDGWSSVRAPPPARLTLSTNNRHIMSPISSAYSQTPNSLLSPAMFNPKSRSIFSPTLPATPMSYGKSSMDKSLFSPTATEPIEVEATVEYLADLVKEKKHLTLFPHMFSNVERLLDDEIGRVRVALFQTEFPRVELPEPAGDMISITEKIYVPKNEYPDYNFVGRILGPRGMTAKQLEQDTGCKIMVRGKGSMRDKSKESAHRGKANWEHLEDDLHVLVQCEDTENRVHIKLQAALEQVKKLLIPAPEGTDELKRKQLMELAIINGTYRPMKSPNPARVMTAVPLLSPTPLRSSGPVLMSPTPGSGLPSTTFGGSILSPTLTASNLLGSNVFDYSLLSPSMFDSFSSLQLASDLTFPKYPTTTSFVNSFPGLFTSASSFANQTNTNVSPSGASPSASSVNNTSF
Paired box protein Pax-8, sequence (Q06710 whole entry): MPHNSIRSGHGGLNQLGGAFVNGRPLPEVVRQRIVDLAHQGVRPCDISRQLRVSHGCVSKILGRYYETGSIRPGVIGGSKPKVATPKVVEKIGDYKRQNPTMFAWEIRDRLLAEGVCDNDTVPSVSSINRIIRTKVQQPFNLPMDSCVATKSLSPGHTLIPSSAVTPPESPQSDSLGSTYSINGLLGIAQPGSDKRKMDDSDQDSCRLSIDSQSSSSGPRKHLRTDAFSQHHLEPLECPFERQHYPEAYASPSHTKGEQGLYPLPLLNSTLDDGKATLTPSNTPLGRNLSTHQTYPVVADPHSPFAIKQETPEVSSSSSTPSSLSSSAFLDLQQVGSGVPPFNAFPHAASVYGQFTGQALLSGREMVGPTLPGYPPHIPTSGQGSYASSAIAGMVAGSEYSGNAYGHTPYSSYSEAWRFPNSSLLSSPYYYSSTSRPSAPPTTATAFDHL
Nonstructural protein 1, sequence (Q194T2 whole entry): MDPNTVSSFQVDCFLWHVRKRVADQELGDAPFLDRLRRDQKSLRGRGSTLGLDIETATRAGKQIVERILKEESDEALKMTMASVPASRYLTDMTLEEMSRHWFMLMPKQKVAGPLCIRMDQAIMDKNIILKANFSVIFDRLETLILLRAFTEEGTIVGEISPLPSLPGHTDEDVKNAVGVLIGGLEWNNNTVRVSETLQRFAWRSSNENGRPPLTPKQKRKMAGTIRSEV
Melanocortin receptor 4, sequence (P32245 whole entry): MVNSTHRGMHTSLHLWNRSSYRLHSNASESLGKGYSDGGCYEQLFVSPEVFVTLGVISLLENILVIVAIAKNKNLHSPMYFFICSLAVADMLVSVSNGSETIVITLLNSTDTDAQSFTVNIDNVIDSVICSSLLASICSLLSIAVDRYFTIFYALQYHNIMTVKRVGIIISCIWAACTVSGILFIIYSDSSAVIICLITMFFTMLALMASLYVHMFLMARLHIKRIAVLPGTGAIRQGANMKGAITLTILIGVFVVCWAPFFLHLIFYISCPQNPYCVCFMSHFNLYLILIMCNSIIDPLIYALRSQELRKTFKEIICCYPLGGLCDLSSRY
Polyadenylate-binding protein 1, sequence (P11940 whole entry): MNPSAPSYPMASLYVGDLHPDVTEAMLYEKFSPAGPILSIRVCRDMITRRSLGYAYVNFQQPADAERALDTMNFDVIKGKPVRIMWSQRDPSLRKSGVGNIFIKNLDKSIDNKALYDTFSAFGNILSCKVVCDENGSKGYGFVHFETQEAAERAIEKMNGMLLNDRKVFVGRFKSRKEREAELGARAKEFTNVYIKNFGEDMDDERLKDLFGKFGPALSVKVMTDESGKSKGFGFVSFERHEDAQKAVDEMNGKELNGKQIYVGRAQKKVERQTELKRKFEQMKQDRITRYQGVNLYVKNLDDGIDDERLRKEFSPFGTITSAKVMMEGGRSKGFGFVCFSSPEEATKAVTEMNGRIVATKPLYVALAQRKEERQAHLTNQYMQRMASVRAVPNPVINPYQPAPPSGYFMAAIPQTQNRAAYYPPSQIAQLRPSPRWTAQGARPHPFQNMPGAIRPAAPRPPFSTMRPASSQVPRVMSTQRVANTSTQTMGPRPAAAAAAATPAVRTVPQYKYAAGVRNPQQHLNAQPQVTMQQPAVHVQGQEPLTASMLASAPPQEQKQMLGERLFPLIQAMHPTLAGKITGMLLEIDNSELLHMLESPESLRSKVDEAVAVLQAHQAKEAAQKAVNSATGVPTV
Serine/threonine-protein phosphatase, sequence (Q9BPW0 whole entry): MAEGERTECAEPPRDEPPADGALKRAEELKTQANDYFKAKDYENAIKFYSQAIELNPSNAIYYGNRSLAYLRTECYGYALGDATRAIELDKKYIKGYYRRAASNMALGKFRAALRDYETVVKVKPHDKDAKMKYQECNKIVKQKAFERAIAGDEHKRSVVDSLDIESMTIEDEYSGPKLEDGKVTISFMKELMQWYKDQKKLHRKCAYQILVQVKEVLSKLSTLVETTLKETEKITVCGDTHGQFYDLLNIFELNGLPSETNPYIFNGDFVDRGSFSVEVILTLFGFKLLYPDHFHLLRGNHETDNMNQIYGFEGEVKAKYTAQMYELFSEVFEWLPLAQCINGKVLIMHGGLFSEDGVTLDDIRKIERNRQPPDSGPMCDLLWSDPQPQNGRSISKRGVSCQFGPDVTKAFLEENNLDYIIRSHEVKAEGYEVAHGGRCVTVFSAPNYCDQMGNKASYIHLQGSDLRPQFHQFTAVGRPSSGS

As usually defined, the EC50 is the concentration that produces a half-maximal response. Consider `Cc1cccc(C)c1-n1cccc1/C=C1\SC(=S)N(c2cccc(C(=O)O)c2)C1=O`, for which the half-maximal effective concentration (EC50) in assay [1] is 2.07 µM (active); in assay [2], > 89.2 µM (inactive).

On to `Oc1ccc(/C=N/Nc2cc(N3CCCC3)nc(N3CCCC3)n2)cc1`, for which the results for the IC50 in assay [3], in assay [4] and in assay [5] were 10.9 µM (not active), 34.4 µM (inactive) and 2.75 µM (active), respectively.

In general, AC50 refers to the concentration giving half of the maximal activity seen. `COc1ccc(S(=O)(=O)/N=C2\C=C(Nc3ccc(O)cc3)C(=O)c3ccccc32)cc1`: the concentration at half-maximal activity (AC50) is 1.86 µM (active) in [6] and 7.4 µM (active) in assay [11]. The IC50 in assay [7] was 43 µM (inactive); in assay [9] it was 8.09 µM (active); in assay [10], > 80 µM (inactive). Also, the EC50 is 2.93 µM (inconclusive) in assay [8] and 3.21 µM (inconclusive) in assay [12].

For the compound `COc1ccc(/C=N/Nc2cc(N3CCCC3)nc(N3CCCC3)n2)cc1`, the IC50 in assay [13] is 2.31 µM (active). Besides, the AC50 in [14] is 2.01 µM (active). Besides, the CC50 in assay [15] was 20.3 µM (active).
